{"source": "paper PMC6974970", "about": "(Annals of Clinical Microbiology and Antimicrobials, 2020)", "test": "Pharmacokinetic monitoring of plasma LPV and RTV (HPLC/MS–MS) in TB/HIV co-infected patients on LPV/RTV plus rifabutin", "format": "in vivo, human", "settings": "for concentration: read-out: C0 (plasma drug concentration before the morning dose); for Tmax, individual patients: unit from Table 2; for AUC(0-t): read-out: AUC0–12h; for concentration at 12 h: read-out: C12 (plasma drug concentration 12 h post-dose); for C1, individual patients: individual plasma concentration at 1 h; for C2, individual patients: individual plasma concentration at 2 h; for C3, individual patients: individual plasma concentration at 3 h; for C4, individual patients: individual plasma concentration at 4 h; for C6, individual patients: individual plasma concentration at 6 h; for C8, individual patients: individual plasma concentration at 8 h; for C12, individual patients: individual plasma concentration at 12 h; for C0, individual patients: individual plasma concentration before dose, per patient", "description": "This was a pharmacokinetic study based on the use of LPV and RTV in HIV and tuberculosis co-infected adults. They were being treated with rifabutin 150 mg thrice weekly or rifabutin 300 mg thrice weekly.\nThe patients were participating in the RIFLOPI study registered on PACTR201310000629390. They were recruited from the Bogodogo and Kossodo district hospitals in Ouagadougou from May 2013 to December 2015. Study inclusion criteria were that the patients were between 18 and 60 years of age, HIV-1 infected with pulmonary tuberculosis confirmed or suspected. […] The 2 weeks minimum delay comes from the time frame of building up full induction effect. The participating patients were divided into two groups. The first group (RBT 150 mg thrice weekly) consisted of nine patients on antiretroviral and anti-tuberculosis treatment including LPV (LPV/RTV 400/100 mg + 2INTI) twice daily in combination with rifabutin 150 mg thrice weekly and standard ethambutol–isoniazid–pyrazinamide. The second group (RBT 300 mg thrice weekly) consisted of seven patients treated with (LPV/RTV 400/100 mg + 2INTI) twice daily in combination with rifabutin 300 mg thrice weekly and standard ethambutol–isoniazid–pyrazinamide. […] Each patient took a daily dose of cotrimoxazole to prevent opportunistic infections associated with HIV.\nPharmacokinetic monitoring was performed after 2 weeks of combined LPV/RTV and RBT treatment. On the day before pharmacokinetic monitoring, patients were admitted and fasted from midnight onwards. The pharmacokinetic assessment was conducted on a day when a dose of RBT was taken. The first measure of the pharmacokinetic monitoring (time zero) was performed on an empty stomach before taking the daily dose of RBT and LPV/RTV. After the first blood sampling, patients immediately (within 5 min) took their rifabutin and LPV/RTV regimen. Subsequent blood samples for pharmacokinetic monitoring were collected at 1, 2, 3, 4, 6, 8 and 12 h after combined drug ingestion. Breakfast (a sandwich and water) was served to the patients 2 h after drug ingestion.\nTwo to three millilitres of blood was collected in a heparinized primary vial and centrifuged at 3000 rpm for 10 min within 1 h of collection. The plasma was stored at − 20 °C until transportation to the laboratory for the pharmacokinetic analysis.\nA high-performance liquid chromatography–mass spectrometry (HPLC/MS–MS) assay previously described by Moyer et al. was used to determine the LPV and RTV plasma concentrations at the Service of Clinical Pharmacology (IRCCS S Matteo, Pavia, Italy). The limit of quantification was 0.05 µg/mL for both drugs. The assay was validated in accordance with the European Medicines Agency (EMA) “Guidelines on bioanalytical method validation. The areas under the plasma concentration–time curve (AUC) were calculated by using the linear trapezoidal rule.\nData were entered using EpiData (http://www.epidata.dk) and Excel and analysed with Stata, version 13 (https://www.stata.com, StataCorp LP; College Station, TX, USA). Descriptive statistics were used to describe the patient’s characteristics and to calculate the frequencies, proportions and medians with interquartile intervals. Statistical comparisons were made using Fisher’s exact test with 5% set as the significance level. For the LPV and RTV pharmacokinetic profile, we determined for each patient the Cmax (peak concentration measured (µg/mL)), the Ctrough (drug plasma concentration measured just prior to administration of the drug dose (µg/mL)), the Tmax (time for Cmax), the area under the curve during a dosing interval (AUC0–12 = plasma concentration * time (µg × h/mL) and the apparent clearance (CL/F, true clearance divided by the true absolute bioavailability).", "key": {"[1]": {"settings": "first group RBT 150 mg TPW, listed as RTV"}, "[2]": {"settings": "human, plasma, oral, LPV/RTV 400/100 mg twice daily with RBT 150 mg TPW (n = 9), median and IQR"}, "[3]": {"settings": "human, plasma, oral, LPV/RTV 400/100 mg twice daily with RBT 300 mg TPW (n = 7), median and IQR"}, "[4]": {"settings": "second group RBT 300 mg TPW, listed as RTV"}}, "note": "Values joined by “and” are separate entries in the source; they are usually repeats but may differ in a detail not shown here. Equal values may be shown once. “Also recorded” adds a separate entry of the source. Read-outs that look alike come from different tables or passages of the source.", "data": [{"smiles": "CC(C)c1nc(CN(C)C(=O)N[C@H](C(=O)N[C@@H](Cc2ccccc2)C[C@H](O)[C@H](Cc2ccccc2)NC(=O)OCc2cncs2)C(C)C)cs1", "note": "[Ritonavir, ritonavir]", "values": [{"measurement": "concentration", "setting": "LPV/RTV 400/100 mg twice daily with RBT 150 mg TPW (arm A, n = 9), median and IQR, plasma", "result": 2100, "unit": "ng/mL"}, {"measurement": "concentration", "setting": "LPV/RTV 400/100 mg twice daily with RBT 300 mg TPW (arm B, n = 7), median and IQR, plasma", "result": 1600, "unit": "ng/mL"}, {"measurement": "AUC0–12, individual patients", "setting": "[1]", "result": "10800 ng·h/mL and 23500 ng·h/mL and 14800 ng·h/mL and 7800 ng·h/mL and 8900 ng·h/mL and 12800 ng·h/mL and 12200 ng·h/mL and 18500 ng·h/mL"}, {"measurement": "Cl, individual patients", "setting": "[1]", "result": "2.83 mL/min/kg and 1.3 mL/min/kg and 1.83 mL/min/kg and 4.17 mL/min/kg and 3.17 mL/min/kg and 3 mL/min/kg and 2.5 mL/min/kg"}, {"measurement": "Cmax, individual patients", "setting": "[1]", "result": "3600 ng/mL and 2900 ng/mL and 1280 ng/mL and 1860 ng/mL and 2260 ng/mL and 2740 ng/mL and 3160 ng/mL"}, {"measurement": "Tmax, individual patients", "setting": "first group RBT 150 mg TPW", "result": 3, "unit": "h"}, {"measurement": "Tmax, individual patients", "setting": "[1]", "result": "1 h and 4 h and 6 h"}, {"measurement": "Cmax", "setting": "human, plasma, oral, 150 mg, first group RBT 150 mg TPW, read-out: Cmax, individual patients", "result": 1910, "unit": "ng/mL"}, {"measurement": "AUC(0-t)", "setting": "[2]", "result": 12700, "unit": "ng·h/mL"}, {"measurement": "concentration at 12 h", "setting": "[2]", "result": 1700, "unit": "ng/mL"}, {"measurement": "Cmax", "setting": "human, plasma, oral, LPV/RTV 400/100 mg twice daily with RBT 150 mg TPW (n = 9), median and IQR, read-out: Cmax", "result": 2700, "unit": "ng/mL"}, {"measurement": "Tmax", "setting": "[3]", "result": 2, "unit": "h"}, {"measurement": "AUC(0-t)", "setting": "[3]", "result": 6600, "unit": "ng·h/mL"}, {"measurement": "concentration at 12 h", "setting": "[3]", "result": 600, "unit": "ng/mL"}, {"measurement": "CL/F", "setting": "human, plasma, oral, LPV/RTV 400/100 mg twice daily with RBT 300 mg TPW (n = 7), median and IQR, read-out: CL (apparent clearance, CL/F) (converted)", "result": 4.83, "unit": "mL/min/kg"}, {"measurement": "Cmax", "setting": "human, plasma, oral, LPV/RTV 400/100 mg twice daily with RBT 300 mg TPW (n = 7), median and IQR, read-out: Cmax", "result": 1500, "unit": "ng/mL"}, {"measurement": "C1, individual patients", "setting": "[1]", "result": "1.91 µg/mL and 3.8 µg/mL and 3.1 µg/mL and 0.4 µg/mL and 1.86 µg/mL and 2 µg/mL"}, {"measurement": "C1, individual patients", "setting": "[4]", "result": "Low and 0.37 µg/mL and 1.97 µg/mL and 2.14 µg/mL and 1.64 µg/mL and 1.5 µg/mL"}, {"measurement": "C2, individual patients", "setting": "[1]", "result": "1.72 µg/mL and 3.6 µg/mL and 2.6 µg/mL and 1.7 µg/mL and 2.5 µg/mL and 2.24 µg/mL"}, {"measurement": "C2, individual patients", "setting": "[4]", "result": "1 µg/mL and 0.4 µg/mL and 0.8 µg/mL and 2.22 µg/mL and 2.43 µg/mL and 1.9 µg/mL and 1.12 µg/mL"}, {"measurement": "C3, individual patients", "setting": "[1]", "result": "1.65 µg/mL and 3.5 µg/mL and 2.9 µg/mL and 0.64 µg/mL and 0.4 µg/mL and 1.81 µg/mL"}, {"measurement": "C3, individual patients", "setting": "[4]", "result": "1.33 µg/mL and 0.3 µg/mL and 0.8 µg/mL and 1.41 µg/mL and 2.4 µg/mL and 1.9 µg/mL and 1.2 µg/mL"}, {"measurement": "C4, individual patients", "setting": "[1]", "result": "1.2 µg/mL and 2.7 µg/mL and 1.7 µg/mL and 1.28 µg/mL and 0.5 µg/mL and 2.26 µg/mL"}, {"measurement": "C4, individual patients", "setting": "[4]", "result": "1.44 µg/mL and 0.38 µg/mL and 0.9 µg/mL and 0.95 µg/mL and 1.67 µg/mL and 2 µg/mL and 1 µg/mL"}, {"measurement": "C6, individual patients", "setting": "[1]", "result": "1.64 µg/mL and 3.3 µg/mL and 1.5 µg/mL and 0.7 µg/mL and 1 µg/mL"}, {"measurement": "C6, individual patients", "setting": "[4]", "result": "1.22 µg/mL and 0.3 µg/mL and 0.8 µg/mL and 1.45 µg/mL and 1.3 µg/mL and 2.5 µg/mL and 0.5 µg/mL"}, {"measurement": "C8, individual patients", "setting": "[1]", "result": "1.24 µg/mL and 2.8 µg/mL and 1.2 µg/mL and 2.4 µg/mL and 1 µg/mL and 1.5 µg/mL"}, {"measurement": "C8, individual patients", "setting": "[4]", "result": "1.1 µg/mL and 0.28 µg/mL and 0.9 µg/mL and 0.66 µg/mL and 1 µg/mL and 2 µg/mL and 0.13 µg/mL"}, {"measurement": "C12, individual patients", "setting": "[1]", "result": "1.1 µg/mL and 3.6 µg/mL and 0.6 µg/mL and 0.2 µg/mL and 1.33 µg/mL and 1.7 µg/mL"}, {"measurement": "C12, individual patients", "setting": "[4]", "result": "0.62 µg/mL and low and 0.6 µg/mL and 0.53 µg/mL and 0.7 µg/mL and 1.86 µg/mL and Low"}, {"measurement": "C0, individual patients", "setting": "[1]", "result": "1850 ng/mL and 4110 ng/mL and 3100 ng/mL and 1200 ng/mL and 2100 ng/mL and 1430 ng/mL"}, {"measurement": "C0, individual patients", "setting": "[4]", "result": "below the limit of quantification and Low and 0.41 µg/mL and 0.2 µg/mL and 2.72 µg/mL and 1.84 µg/mL and 1.55 µg/mL and 2.3 µg/mL"}, {"measurement": "reduction of plasma concentrations, RBT 300 mg versus RBT 150 mg", "setting": "patients receiving RBT 300 mg TPW compared to RBT 150 mg TPW, listed as RTV", "result": "nearly halved; also recorded: nearly half"}, {"measurement": "Cl, individual patients", "setting": "[4]", "result": "6.5 mL/min/kg and 13.5 mL/min/kg and 9 mL/min/kg and 2.67 mL/min/kg and 3.33 mL/min/kg and 2.5 mL/min/kg and 4.83 mL/min/kg"}, {"measurement": "Tmax, individual patients", "setting": "[4]", "result": "4 h and 6 h and 1 h"}]}]}
